In paper PMC10996005, “Identification and Development of Cyclic Peptide Inhibitors of Hypoxia Inducible Factors 1 and 2 That Disrupt Hypoxia-Response Signaling in Cancer Cells” (Journal of the American Chemical Society, 2024):
Where a SMILES comes first, the peptide text is derived from it. [ ]: non-standard residue; d: D form. Phe(4-I) = N[C@@H](Cc1ccc(I)cc1)C(=O)O

Experiments:
[1] = target: T1, HIF-1α in Panc-1 cells (Homo sapiens, UniProt Q16665); assay: Cellular thermal shift assay; assay type: cell-based; settings: 40 μM, samples heated to 54 °C
T1 construct: endogenous in cells; host or cells: PANC-1
Description: Next, we used a cellular-thermal shift assay[40] to assess whether our lead molecule binds to HIF-1α in the intracellular environment. We observed a 2.9 ± 0.4-fold increased level of HIF-1α protein in Panc-1 (pancreatic cancer) cells treated with 40 μM cyclo-CRLII(4-iodo)F compared to DMSO control in samples heated to 54 °C, indicating intracellular binding of this compound to its protein target (Figure 6d). […]
highest pLDDT score was relaxes with the inbuilt amber energy minimisation and used for subsequent docking steps. HADDOCK docking was performed by assigning the HIF-1α PAS-B domain (residues 214-335) and CRLIIF residues 1, 5 and 6 as active residue binders and clustered using the inbuilt RMSD clustering algorithm.
Cellular Thermal Shift Assay
Pancreatic cancer cells (PANC-1) were plated in a T75 flask at 80% confluency overnight under normoxic conditions. The cells were then dosed with compound and incubated for 18 hours under hypoxic conditions (1% O2, 94% N2, 5% CO2, 80% Humidity). The cells were subsequently washed with PBS and divided into several aliquots, each of which was exposed to different temperatures (45°C, 48°C, 51°C, and 54°C) for 30 seconds on a thermal cycler (Bio-Rad). […] The concentration of the extracted proteins was measured using the BCA Protein Assay Kit (Sigma) following the manufacturer's instructions. […]

[2] = system: CAIX and VEGF genes in Panc-1 cells; assay: qPCR of hypoxia-response genes in Panc-1 cells; assay type: cell-based; settings: hypoxic Panc-1 cells, 50 μM, vs DMSO-treated hypoxic cells
Description: The effect of our lead inhibitor on hypoxia-response signaling was measured by qPCR in cancer cell lines. Cells were treated with either 2 μM of an analogue of the HIF-2-specific inhibitor belzutifan, PT2399 (control), or 50 μM of cyclo-CRLII(4-iodo)F, incubated in hypoxia for […], and the levels of the hypoxia-response genes CAIX([41],[42]) and VEGF([43]) were measured by qPCR. We observed a 51% drop in CAIX transcription and a 43% drop in VEGF transcription in hypoxic MCF-7 (breast cancer) cells treated with 50 μM of cyclo-CRLII(4-iodo)F versus hypoxic MCF-7 cells treated with DMSO only (Figure 6e). […] We also observed a 49% drop in CAIX expression in hypoxic HeLa (cervical cancer) cells treated with cyclo-CRLII(4-iodo)F (Figure S9b). […] We observed a 35% drop in HIF-2-driven VEGF transcription in 786-O cells treated with 50 μM of cyclo-CRLII(4-iodo)F compared to a 50% decrease in 786-O cells treated with PT2399. […]
Realtime PCR (qPCR) Assay
Cells were plated on 6cm dishes at 80% confluency and incubated overnight under normoxic conditions. The cells were then treated with compound and incubated for 18 hours in hypoxic conditions. After treatment, the cells were washed with PBS and lysed under hypoxic conditions. The total RNA was extracted from the cells using a commercial RNA extraction kit (Fisher Scientific) following the manufacturer's instructions. A commercial reverse transcription kit (Promega) was used to generate cDNA. The MyTaq™ Mix master mix and appropriate primers targeting CAIX and VEGF were used to perform the qPCR reaction using a qPCR machine (Bio-Rad).

T1 sequence (Q16665 whole entry): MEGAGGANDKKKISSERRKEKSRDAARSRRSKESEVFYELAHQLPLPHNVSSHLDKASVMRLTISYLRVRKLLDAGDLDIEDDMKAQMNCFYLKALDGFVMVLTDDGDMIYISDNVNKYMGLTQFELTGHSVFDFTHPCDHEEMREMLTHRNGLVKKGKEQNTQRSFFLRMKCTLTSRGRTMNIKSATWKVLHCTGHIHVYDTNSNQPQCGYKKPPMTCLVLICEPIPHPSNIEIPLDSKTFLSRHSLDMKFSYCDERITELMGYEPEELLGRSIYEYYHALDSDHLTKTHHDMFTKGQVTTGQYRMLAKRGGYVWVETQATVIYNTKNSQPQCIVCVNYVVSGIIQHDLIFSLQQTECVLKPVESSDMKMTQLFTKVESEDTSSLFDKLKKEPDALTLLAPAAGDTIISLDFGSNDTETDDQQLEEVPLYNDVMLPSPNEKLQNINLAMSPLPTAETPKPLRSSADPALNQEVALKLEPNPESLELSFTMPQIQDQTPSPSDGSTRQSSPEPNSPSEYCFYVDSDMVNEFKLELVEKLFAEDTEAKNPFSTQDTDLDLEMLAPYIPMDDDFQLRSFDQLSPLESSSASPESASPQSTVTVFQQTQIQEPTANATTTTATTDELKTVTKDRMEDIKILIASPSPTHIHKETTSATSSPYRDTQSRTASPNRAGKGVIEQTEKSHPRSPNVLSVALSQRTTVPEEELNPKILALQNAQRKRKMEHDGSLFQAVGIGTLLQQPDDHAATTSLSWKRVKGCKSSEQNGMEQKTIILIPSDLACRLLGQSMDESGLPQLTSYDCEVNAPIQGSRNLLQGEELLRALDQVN

increased level of HIF-1α protein compared to DMSO control [1]: 2.9 ± 0.4 fold
SMILES: CC[C@H](C)[C@@H]1NC(=O)[C@H](CC(C)C)NC(=O)[C@H](CCCNC(=N)N)NC(=O)[C@H](CS)NC(=O)[C@H](Cc2ccc(I)cc2)NC(=O)[C@H]([C@@H](C)CC)NC1=O [cyclo-CRLII(4-iodo)F] (cyclo(CRLII[Phe(4-I)]))
drop in CAIX expression [2]: 41%
drop in VEGF transcription [2]: 26%
